In patent US11274092B2, “Potassium channel inhibitors” (ACESION PHARMA ApS, priority 2016, dated 2022):
pIC50: −log10 of the molar value.

What follows are compounds tested against T1, human SK3 channel (hKCa2.3) (Homo sapiens, UniProt Q9UGI6) (assay: Automated whole cell patch-clamp (QPatch 16 HT), inhibition of SK3 current). Conditions: HEK-293 cells stably expressing hKCa2.3; symmetrical K+ solutions, free calcium 400 nM; effects normalized to N-methyl bicuculline.
T1 construct: expressed in transfected cells
Type: cell-based
Experimental: Automated whole cell patch-clamp recordings were performed using a QPatch 16 HT system and single-hole Qplates (Biolin Scientific, Sophion, Denmark) on HEK-293 cells stably expressing the human SK3 channel (hKCa2.3). Cells were cultured and prepared for experiments using normal cell culturing procedures. A total of 4-5 million cells were used per experiment. The Qpatch automatically generates giga sealing, whole-cell formation, compound application and recording of current. hKCa2.3 currents were recorded in symmetrical K^+ solutions, with an intracellular solution consisting of in mM: KCl 108; KOH/EGTA (ethylene glycol-bis(2-aminoethylether)-N,N,N′,N′-tetraacetic acid) 31.25/10; CaCl2) 8.1; MgCl2 1.2; HEPES (2-[4-(2-hydroxyethyl)piperazin-1-yl]ethanesulfonic acid) 10; KOH 15, pH adjusted to pH=7.2 with HCl. The free calcium concentration was calculated to 400 nM. The extracellular solution consisted of in mM: KCl 150; CaCl2) 0.1; MgCl2 3; HEPES 10; Glucose 10, pH=7.4 with KOH. The cells were held at 0 mV and hKCa2.3 currents were elicited by a linear voltage ramp from […] (200 ms in duration) applied every 5th second. The compound application protocol consisted of 12 recording periods lasting from 50-200 s: 1) Baseline recordings in extracellular solution; 2) Application of the positive control N-methyl bicuculline (100 μM), which is characterized by full efficacy, fast on- and off-rate; 3-4) Wash-out; 5-9) Increasing concentrations of test compound to establish an IC50 value; 10-11) Wash-out; 12) positive control with compound NS8593 (N-[(1R)-1,2,3,4-tetrahydro-1-naphthalenyl]-1H-benzimidazol-2-amine) (1 μM). Data were sampled at 10 kHz, 4th order Bessel filter, cut-off frequency 3 kHz. Currents were compensated for run-down. Potency was quantified as the concentration needed to inhibit half of the SK channel activity and reported as an IC50 value. All effects of compounds of the present invention as tested were normalized to the observed inhibitory effect of N-methyl bicuculline.

SMILES	pIC50
COC(=O)CNC(=O)CC(Nc1nc2ccccc2[nH]1)c1cccc(C(F)(F)F)c1 (single isomer, unassigned; (-)) [Example 59a, (−)Methyl 2-{3-[(1H-1,3-benzodiazol-2-yl)amino]-3-[3-(trifluoromethyl)phenyl]propanamido}acetate]	> 5.00
COCC(C)NC(=O)CC(Nc1nc2ccccc2[nH]1)c1cccc(C(F)(F)F)c1 (stereo not drawn) [Example 73, 3-[(1H-1,3-benzodiazol-2-yl)amino]-N-(1-methoxypropan-2-yl)-3-[3-(trifluoromethyl)phenyl]propanamide]	> 5.00
CN(CC#N)C(=O)CC(Nc1nc2c(CO)cccc2[nH]1)c1cccc(C(F)(F)F)c1 (stereo not drawn) [Example 50, N-(cyanomethyl)-3-{[4-(hydroxymethyl)-1H-1,3-benzodiazol-2-yl]amino}-N-methyl-3-[3-(trifluoromethyl)phenyl]propanamide]	4.00 to 5.00
COCCNC(=O)CC(Nc1nc2ccccc2[nH]1)c1cccc(SC)c1 (stereo not drawn) [Example 92, 3-[(1H-1,3-benzodiazol-2-yl)amino]-N-(2-methoxyethyl)-3-[3-(methylsulfanyl)phenyl]propanamide]	> 5.00
CCN(CC#N)C(=O)CC(Nc1nc2ccccc2[nH]1)c1cccc(C(F)(F)F)c1 (stereo not drawn) [Example 55, 3-[(1H-1,3-benzodiazol-2-yl)amino]-N-(cyanomethyl)-N-ethyl-3-[3-(trifluoromethyl)phenyl]propanamide]	> 5.00
CCN(CC#N)C(=O)CC(Nc1nc2c(CO)cccc2[nH]1)c1cccc(C(F)(F)F)c1 (stereo not drawn) [Example 53, N-(cyanomethyl)-N-ethyl-3-{[4-(hydroxymethyl)-1H-1,3-benzodiazol-2-yl]amino}-3-[3-(trifluoromethyl)phenyl]propanamide]	4.00 to 5.00
CCN(CCO)C(=O)CC(Nc1nc2ccccc2[nH]1)c1ccc(C)c(Cl)c1 (stereo not drawn) [Example 20, 3-[(1H-1,3-benzodiazol-2-yl)amino]-3-(3-chloro-4-methylphenyl)-N-ethyl-N-(2-hydroxyethyl)propanamide]	> 5.00
CN(CC#N)C(=O)CC(Nc1nc2ccccc2[nH]1)c1cccc(C(F)(F)F)c1 (stereo not drawn) [Example 56, 3-[(1H-1,3-benzodiazol-2-yl)amino]-N-(cyanomethyl)-N-methyl-3-[3-(trifluoromethyl)phenyl]propanamide]	> 5.00
CCN(CCO)C(=O)C(Nc1nc2ccccc2[nH]1)c1cccc(C(F)(F)F)c1 (stereo not drawn) [Example 38, 2-[(1H-1,3-benzodiazol-2-yl)amino]-N-ethyl-N-(2-hydroxyethyl)-2-[3-(trifluoromethyl)phenyl]acetamide]	> 5.00
COCCNC(=O)CC(Nc1nc2ccccc2[nH]1)c1cccc(C(F)(F)F)c1 (stereo not drawn) [Example 42, 3-[(1H-1,3-benzodiazol-2-yl)amino]-N-(2-methoxyethyl)-3-[3-(trifluoromethyl)phenyl]propanamide]	> 5.00
O=C(C(Nc1nc2ccccc2[nH]1)c1cccc(C(F)(F)F)c1)N1CCCC1 (stereo not drawn) [Example 29, 2-[(1H-1,3-benzodiazol-2-yl)amino]-1-(pyrrolidin-1-yl)-2-[3-(trifluoromethyl)phenyl]ethan-1-one]	> 5.00
CN(C)C1CN(C(=O)C(Nc2nc3ccccc3[nH]2)c2cccc(C(F)(F)F)c2)C1 (stereo not drawn) [Example 28, 2-[(1H-1,3-benzodiazol-2-yl)amino]-1-[3-(dimethylamino)azetidin-1-yl]-2-[3-(trifluoromethyl)phenyl]ethan-1-one]	4.00 to 5.00
CCN(CCO)C(=O)C(Nc1nc2ccccc2[nH]1)c1cccc(C(F)(F)F)c1 (single isomer, unassigned; (+)) [Example 38b, (+)2-[(1H-1,3-benzodiazol-2-yl)amino]-N-ethyl-N-(2-hydroxyethyl)-2-[3-(trifluoromethyl)phenyl]acetamide]	4.00 to 5.00
Cn1ccnc1CNC(=O)CC(Nc1nc2ccccc2[nH]1)c1cccc(C(F)(F)F)c1 (stereo not drawn) [Example 19, 3-[(1H-1,3-benzodiazol-2-yl)amino]-N-[(1-methyl-1H-imidazol-2-yl)methyl]-3-[3-(trifluoromethyl)phenyl]propanamide]	4.00 to 5.00
CCN(CCO)C(=O)CC(Nc1nc2c(CO)cccc2[nH]1)c1cccc(C(F)(F)F)c1 (stereo not drawn) [Example 49, N-ethyl-N-(2-hydroxyethyl)-3-{[4-(hydroxymethyl)-1H-1,3-benzodiazol-2-yl]amino}-3-[3-(trifluoromethyl)phenyl]propanamide]	4.00 to 5.00
O=C(CC(Nc1nc2ccccc2[nH]1)c1cccc(C(F)(F)F)c1)N1CC[C@H](O)C1 (stereo partly drawn) [Example 15, 3-[(1H-1,3-benzodiazol-2-yl)amino]-1-[(3S)-3-hydroxypyrrolidin-1-yl]-3-[3-(trifluoromethyl)phenyl]propan-1-one]	4.00 to 5.00
O=C(C(Nc1nc2ccccc2[nH]1)c1cccc(C(F)(F)F)c1)N1CCOCC1 (stereo not drawn) [Example 32, 2-[(1H-1,3-benzodiazol-2-yl)amino]-1-(morpholin-4-yl)-2-[3-(trifluoromethyl)phenyl]ethan-1-one]	> 5.00
COCCNC(=O)CC(Nc1nc2c(OC)cccc2[nH]1)c1cccc(C(F)(F)F)c1 (stereo not drawn) [Example 93, 3-[(4-methoxy-1H-1,3-benzodiazol-2-yl)amino]-N-(2-methoxyethyl)-3-[3-(trifluoromethyl)phenyl]propanamide]	> 5.00
CN(CC#N)C(=O)CC(Nc1nc2c(CCO)cccc2[nH]1)c1cccc(C(F)(F)F)c1 (stereo not drawn) [Example 51, N-(cyanomethyl)-3-{[4-(2-hydroxyethyl)-1H-1,3-benzodiazol-2-yl]amino}-N-methyl-3-[3-(trifluoromethyl)phenyl]propanamide]	4.00 to 5.00
Cc1cc(CNC(=O)CC(Nc2nc3ccccc3[nH]2)c2cccc(C(F)(F)F)c2)ccn1 (stereo not drawn) [Example 79, 3-[(1H-1,3-benzodiazol-2-yl)amino]-N-[(2-methylpyridin-4-yl)methyl]-3-[3-(trifluoromethyl)phenyl]propanamide]	> 5.00
O=C(CC(Nc1nc2ccccc2[nH]1)c1cccc(C(F)(F)F)c1)NCCOC(F)(F)F (stereo not drawn) [Example 67, 3-[(1H-1,3-benzodiazol-2-yl)amino]-N-[2-(trifluoromethoxy)ethyl]-3-[3-(trifluoromethyl)phenyl]propanamide]	> 5.00
CN(C)C(=O)CNC(=O)CC(Nc1nc2ccccc2[nH]1)c1cccc(C(F)(F)F)c1 (stereo not drawn) [Example 22, 3-[(1H-1,3-benzodiazol-2-yl)amino]-N-[(dimethylcarbamoyl)methyl]-3-[3-(trifluoromethyl)phenyl]propanamide]	> 5.00
CCN(CCO)C(=O)CC(Nc1nc2ccccc2[nH]1)c1ccc(F)c(C)c1 (single isomer, unassigned; (-)) [Example 39a, (−)3-[(1H-1,3-benzodiazol-2-yl)amino]-N-ethyl-3-(4-fluoro-3-methylphenyl)-N-(2-hydroxyethyl)propanamide]	> 5.00
O=C(CC(Nc1nc2ccccc2[nH]1)c1cccc(C(F)(F)F)c1)NCc1nc2ccccc2o1 (stereo not drawn) [Example 72, 3-[(1H-1,3-benzodiazol-2-yl)amino]-N-(1,3-benzoxazol-2-ylmethyl)-3-[3-(trifluoromethyl)phenyl]propanamide]	> 5.00
CN(CCO)C(=O)C(Nc1nc2ccccc2[nH]1)c1cccc(C(F)(F)F)c1 (stereo not drawn) [Example 30, 2-[(1H-1,3-benzodiazol-2-yl)amino]-N-(2-hydroxyethyl)-N-methyl-2-[3-(trifluoromethyl)phenyl]acetamide]	> 5.00
COCCNC(=O)CC(Nc1nc2ccccc2[nH]1)c1cccc(C(F)(F)F)c1 (single isomer, unassigned; (-)) [Example 42a, (−)3-[(1H-1,3-benzodiazol-2-yl)amino]-N-(2-methoxyethyl)-3-[3-(trifluoromethyl)phenyl]propanamide]	> 5.00
CCN(CCO)C(=O)CC(Nc1nc2ccccc2[nH]1)c1ccc(Cl)c(C)c1 (single isomer, unassigned; (-)) [Example 40a, (−)3-[(1H-1,3-benzodiazol-2-yl)amino]-3-(4-chloro-3-methylphenyl)-N-ethyl-N-(2-hydroxyethyl)propanamide]	> 5.00
Cc1cccc(C(C)NC(=O)CC(Nc2nc3ccccc3[nH]2)c2cccc(C(F)(F)F)c2)n1 (stereo not drawn) [Example 76, 3-[(1H-1,3-benzodiazol-2-yl)amino]-N-[1-(6-methylpyridin-2-yl)ethyl]-3-[3-(trifluoromethyl)phenyl]propanamide]	> 5.00
CCOC(=O)CN(CC)C(=O)CC(Nc1nc2ccccc2[nH]1)c1cccc(C(F)(F)F)c1 (stereo not drawn) [Example 48, Ethyl 2-{3-[(1H-1,3-benzodiazol-2-yl)amino]-N-ethyl-3-[3-(trifluoromethyl)phenyl]propanamido}acetate]	> 5.00
COCCN(C)C(=O)CC(Nc1nc2ccccc2[nH]1)c1cccc(C(F)(F)F)c1 (stereo not drawn) [Example 43, 3-[(1H-1,3-benzodiazol-2-yl)amino]-N-(2-methoxyethyl)-N-methyl-3-[3-(trifluoromethyl)phenyl]propanamide]	> 5.00
